# Assay results from patent US20170202787A1, “TREATMENT OF CHRONIC OBSTRUCTIVE PULMONARY DISEASE WITH NEBULIZED BETA 2-AGONIST OR COMBINED NEBULIZED BETA 2-AGONIST AND ANTICHOLINERGIC ADMINISTRATION” (Sunovion Respiratory Development, Inc., priority 2009, published 2017).
# Structures can show the parent of a compound that is named as a salt. Where two headings read alike, the source gives them in different places.
# Experiments:
# [1] = not given; remark: listed apart in the source
# [2] = Example 6: randomized, cross-over, single dose study of nebulized salmeterol in healthy volunteers
# [3] = approved twice-daily dosing in COPD; cited from earlier work
# [4] = nebulized, clinical trial in COPD; cited from earlier work
# [5] = high efficiency nebulizer
# [6] = not given; remark: listed apart in the source
# [7] = not given; remark: listed apart in the source
# [8] = conventional nebulizer, same or higher dose
# [9] = lower dose, high efficiency nebulizer
smiles,measurement,setting,value
COc1ccc(CC(C)NCC(O)c2ccc(O)c(NC=O)c2)cc1 (racemic) [formoterol],duration of clinically meaningful bronchodilation,[8],less than 24 hours
same,duration of clinically meaningful bronchodilation,high efficiency nebulizer,at least 24 hours
same,duration of clinically meaningful bronchodilation,[1]; [8],less than 24 hours
same,duration of clinically meaningful bronchodilation,[1]; high efficiency nebulizer,at least 24 hours
OCc1cc(C(O)CNCCCCCCOCCCCc2ccccc2)ccc1O (centres unmarked) [salmeterol],duration of clinically meaningful bronchodilation,[2]; high efficiency nebulizer,at least 24 hours
same,period of time of therapeutic effect,"[2]; high efficiency nebulizer, tested doses",12 to 24 h
same,"adverse event profile / side effects (serum potassium, glucose) compared to a selected dose with a conventional nebulizer",[2]; [9],improved adverse event profile and/or improved side effects
same,therapeutic effects compared to a selected dose with a conventional nebulizer,[2]; [9],improved or similar therapeutic effects
same,duration of clinically meaningful bronchodilation,"[2]; same dose with conventional nebulizer, metered dose inhaler, or dry powder inhaler",less than 24 hours
COc1ccc(C[C@@H](C)NC[C@H](O)c2ccc(O)c(NC=O)c2)cc1.COc1ccc(C[C@@H](C)NC[C@H](O)c2ccc(O)c(NC=O)c2)cc1.O=C(O)/C=C/C(=O)O [formoterol fumarate],duration of clinically meaningful bronchodilation with acceptable side effects,[3],12 h
OCc1cc(C(O)CNCCCCCCOCCCCc2ccccc2)ccc1O (centres unmarked) [salmeterol xinafoate],duration of clinically meaningful bronchodilation with acceptable side effects,[3],12 h
COc1ccc(C[C@@H](C)NC[C@H](O)c2ccc(O)c(NC=O)c2)cc1 [arformoterol tartrate],duration of clinically meaningful bronchodilation with acceptable side effects,[3],12 h
same,duration of clinically meaningful bronchodilation,[4],24 h
same,side effects at the dosing giving 24 hours of bronchodilation,[4],unacceptable side effects
"COc1ccc(C[C@@H](C)NC[C@H](O)c2ccc(O)c(NC=O)c2)cc1 [arformoterol, R,R-formoterol]",adverse event profile compared to a comparable or lower dose with a conventional nebulizer,[5],improved adverse event profile
same,lung deposition compared to a comparable or higher dose with a conventional nebulizer,[5],higher degree of lung deposition
same,duration of clinically meaningful bronchodilation,[6]; [8],less than 24 hours
same,duration of clinically meaningful bronchodilation,[6]; high efficiency nebulizer,at least 24 hours
same,duration of clinically meaningful bronchodilation,[7]; [8],less than 24 hours
same,duration of clinically meaningful bronchodilation,[7]; high efficiency nebulizer,at least 24 hours
